Columns and labels:
FintCSP1-Val132Ala = FintCSP1-Val132Ala (Frankliniella intonsa, UniProt A0A891LVF4, V132A); test: Fluorescence (1-NPN) binding and competitive binding assay, FintCSP1 mutant (negative control residue)
Method: (§1) The binding affinity of FintCSP1 and FoccCSP to the fluorescent probe N-phenyl-1-naphthylamine (1-NPN) was tested using a Spectramax M2 fluorescence spectrometer (Molecular Devices, USA) as reported previously. Volatile compounds and 1-NPN were first dissolved to a concentration of 1 mM in HPLC-grade methanol and dissolved to their indicated final concentration (2–20 μM) to titrate 2 μM protein solutions resuspended in 50 mM Tris-HCl (pH 7.4). The 1-NPN/FintCSP1 or 1-NPN/FoccCSP mixture was excited at 280 nm, and the emission spectra were recorded at 415 nm. The binding constants (Kd) of FintCSP1 or FoccCSP to 1-NPN were calculated by Scatchard analysis using Prism 5 software (GraphPad, La Jolla, CA, USA). Assuming a protein activity of 100% and that the volatile compound binds to the protein in a 1:1 ratio at saturation, the dissociation constants (Ki) of FintCSP1 or FoccCSP for each ligand were calculated according to the IC50 (the concentration when the ligand replaces 50% of the probe) value of the volatile compounds. The Ki values were calculated according to the following equation: Ki = [IC50]/(1 + [1-NPN]/K1-NPN), where [1-NPN] is the free concentration of 1-NPN, and K1-NPN is the Kd of the 1-NPN/FintCSP1 or 1-NPN/FoccCSP.
To verify the key amino acids of FintCSP1 and FoccCSP that bind to cis-3-hexenal, six amino acid residues of FintCSP1 were mutated (Lys26Ala, Phe27Ala, Thr28Ala, Glu67Ala, Ser84Ala, and the negative control residue Val132Ala) and nine amino acid residues of FoccCSP were mutated (Lys26Ala, Phe27Ala, Thr28Ala, Thr29Ala, Tyr31Ala, Asp64Ala, Glu67Ala, Gln87Ala, and the negative control residue Val132Ala) with the Fast Mutagenesis System Kit (Transgen Biotech, Beijing, China) using the pET-30a/FintCSP1 and pET-30a/FoccCSP plasmid DNA as template, respectively. […] After validation by sequencing, each recombinant variant protein was produced and purified as described above, and their binding affinity to cis-3-hexenal was measured as described above.

FoccCSP-Gln87Ala = FoccCSP-Gln87Ala (Frankliniella occidentalis, UniProt G4Y3X1, Q87A); test: Fluorescence (1-NPN) binding and competitive binding assay, FoccCSP mutant
Chain of FoccCSP-Gln87Ala (G4Y3X1 entry or part of it Q87A): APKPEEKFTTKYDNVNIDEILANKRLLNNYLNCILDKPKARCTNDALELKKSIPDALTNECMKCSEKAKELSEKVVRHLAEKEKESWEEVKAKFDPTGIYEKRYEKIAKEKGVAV
Method: as §1
(§2) To verify the key amino acids of FintCSP1 and FoccCSP that bind to cis-3-hexenal, six amino acid residues of FintCSP1 were mutated (Lys26Ala, Phe27Ala, Thr28Ala, Glu67Ala, Ser84Ala, and the negative control residue Val132Ala) and nine amino acid residues of FoccCSP were mutated (Lys26Ala, Phe27Ala, Thr28Ala, Thr29Ala, Tyr31Ala, Asp64Ala, Glu67Ala, Gln87Ala, and the negative control residue Val132Ala) with the Fast Mutagenesis System Kit (Transgen Biotech, Beijing, China) using the pET-30a/FintCSP1 and pET-30a/FoccCSP plasmid DNA as template, respectively. Specific primers were designed using Primer Premier 5.0 according to the instructions of the Fast Mutagenesis System Kit (S1 Table). After validation by sequencing, each recombinant variant protein was produced and purified as described above, and their binding affinity to cis-3-hexenal was measured as described above.

FoccCSP-Lys26Ala = FoccCSP-Lys26Ala (Frankliniella occidentalis, UniProt G4Y3X1, K26A); test: as above
Chain of FoccCSP-Lys26Ala (G4Y3X1 entry or part of it K26A): as the sequence (G4Y3X1 entry or part of it Q87A) above, with K7A, A68Q counted along it
Method: as §1, §2

FoccCSP-Tyr31Ala = FoccCSP-Tyr31Ala (Frankliniella occidentalis, UniProt G4Y3X1, Y31A); test: as above
Chain of FoccCSP-Tyr31Ala (G4Y3X1 entry or part of it Y31A): as the sequence (G4Y3X1 entry or part of it Q87A) above, with Y12A, A68Q counted along it
Method: as §1, §2

FoccCSP-Val132Ala = FoccCSP-Val132Ala (Frankliniella occidentalis, UniProt G4Y3X1, V132A); test: Fluorescence (1-NPN) binding and competitive binding assay, FoccCSP mutant (negative control residue)
Chain of FoccCSP-Val132Ala (G4Y3X1 entry or part of it V132A): as the sequence (G4Y3X1 entry or part of it Q87A) above, with A68Q, V113A counted along it
Method: as §1, §2

F. occidentalis antennae = test: Electroantennogram (EAG) assay; parameters: species or system Frankliniella occidentalis; settings: dsFoccCSP-injected compared to dsEGFP-injected F. occidentalis
Method: The FintCSP1, FintCSP2, FintOBP, FintOR, FoccCSP, and enhanced green fluorescent protein (EGFP) coding sequences were obtained from GenBank under accession numbers MT199111, MT211602, OK067245, MT211603, AEP27186.1, and U55761.1, respectively. Primers were designed using Primer Premier 5.0, and the T7 promoter sequence (5′-[…]-3′) was added to the 5′ end of each primer (S1 Table). DNA fragments containing T7 promoter sequences were amplified by PCR using pEASY-T1/target gene or pUC-EGFP (preserved in the laboratory) plasmid DNA as template. Then, a double-stranded RNA (dsRNA) was produced from each target gene using the HiScribe T7 Quick High Yield RNA Synthesis Kit (New England Biolabs) according to the manufacturer’s instructions. […]
At 24 h after dsRNA injection, the electrophysiological responses of F. intonsa antennae to six volatile components (i.e., m-cymene, cis-3-hexenal, (+)-2-carene, trans-2-hexenal, α-phellandrene, and α-humulene) or F. occidentalis antennae to cis-3-hexenal were recorded using EAG. […] The EAG values to volatile compounds were calculated using the following equation: absolute value of EAG reaction = reaction value of the tested sample—average value of two control measurements.

[1] = system: OBP5 from Apolygus lucorum; parameters: method as in PMID 23665333; settings: cited from earlier work
[2] = system: fall webworm moth (Hyphantria cunea) antennae; parameters: method as in PMID 23166622; settings: cited from earlier work

Chain of FintCSP1-Val132Ala (A0A891LVF4 entry or part of it V132A): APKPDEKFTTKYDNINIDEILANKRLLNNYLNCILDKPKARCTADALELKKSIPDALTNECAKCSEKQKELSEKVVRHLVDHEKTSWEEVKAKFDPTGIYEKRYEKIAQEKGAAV

Question: With CC/C=C\CC=O [cis-3-hexenal] as the compound, how does the IC50 (FintCSP1-Val132Ala) read?
Answer: 39.24 ± 0.36 µM

Question: What about the Ki (FintCSP1-Val132Ala) of the same compound?
Answer: 32.18 ± 0.29 µM

Question: And the IC50 (FoccCSP-Gln87Ala)?
Answer: 47.47 ± 0.44 µM

Question: And the Ki (FoccCSP-Gln87Ala)?
Answer: 43.68 ± 0.41 µM

Question: What about the “binding affinity to cis-3-hexenal (in words)” value (“binding affinity” for short) (FoccCSP-Gln87Ala; FoccCSP-Gln87Ala compared to the wild-type protein) of the same compound?
Answer: significantly decreased binding affinities

Question: And the IC50 (FoccCSP-Lys26Ala)?
Answer: 36 ± 0.79 µM

Question: What about the Ki (FoccCSP-Lys26Ala) of the same compound?
Answer: 32.6 ± 0.71 µM

Question: What about the “binding affinity” value (FoccCSP-Lys26Ala; FoccCSP-Lys26Ala compared to the wild-type protein) of the same compound?
Answer: significantly decreased binding affinities

Question: And the IC50 (FoccCSP-Tyr31Ala)?
Answer: 43.9 ± 0.66 µM

Question: What about the Ki (FoccCSP-Tyr31Ala) of the same compound?
Answer: 37.4 ± 0.56 µM

Question: What about the “binding affinity” value (FoccCSP-Tyr31Ala; FoccCSP-Tyr31Ala compared to the wild-type protein) of the same compound?
Answer: significantly decreased binding affinities

Question: What about the IC50 (FoccCSP-Val132Ala) of the same compound?
Answer: 28.7 ± 0.12 µM

Question: What about the Ki (FoccCSP-Val132Ala) of the same compound?
Answer: 23.69 ± 0.1 µM

Question: What about the “binding to cis-3-hexenal (in words)” value (FoccCSP-Val132Ala; FoccCSP-Val132Ala compared to the wild-type protein) of the same compound?
Answer: only a minor change in binding

Question: And the “EAG response of FoccCSP-silenced antennae (in words)” value (F. occidentalis antennae)?
Answer: significantly lower response

Question: What about the “binding to OBP5 (in words)” value [1] of the same compound?
Answer: strongly binds

Question: And the “effect on antennal sensitivity to pheromones (in words)” value [2]?
Answer: raising the sensitivity
